# In BindingDB's records for PubMed 20126400 (University of Oklahoma, 2010):
# Tests used:
# Assay in all cases: Ray2010 Assay 74
# [1] = target: T1, 5-hydroxytryptamine receptor 1A (Homo sapiens, UniProt P08908)
# T1 sequence (P08908 whole entry): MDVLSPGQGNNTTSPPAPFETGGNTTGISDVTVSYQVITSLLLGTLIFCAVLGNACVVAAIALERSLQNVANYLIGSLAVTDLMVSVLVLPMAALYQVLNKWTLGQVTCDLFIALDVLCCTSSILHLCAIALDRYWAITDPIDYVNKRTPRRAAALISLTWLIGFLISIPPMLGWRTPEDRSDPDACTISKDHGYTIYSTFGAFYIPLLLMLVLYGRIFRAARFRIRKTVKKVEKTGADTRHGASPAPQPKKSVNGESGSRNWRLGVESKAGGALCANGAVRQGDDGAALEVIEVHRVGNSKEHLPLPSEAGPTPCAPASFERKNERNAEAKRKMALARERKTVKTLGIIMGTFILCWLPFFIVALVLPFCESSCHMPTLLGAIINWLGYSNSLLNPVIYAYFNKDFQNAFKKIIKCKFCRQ
# Excerpt: (§1) Table S2 shows raw Ki data for the current study combined with data collected from the literature for the ten additional compounds.
# [2] = target: Histamine H1 receptor (Homo sapiens, UniProt P35367)
# Excerpt: as §1
# [3] = target: Sodium-dependent dopamine transporter (Homo sapiens, UniProt Q01959)
# Excerpt: as §1
# [4] = target: T2, Muscarinic acetylcholine receptor M5 (Homo sapiens, UniProt P08912)
# T2 sequence (P08912 whole entry): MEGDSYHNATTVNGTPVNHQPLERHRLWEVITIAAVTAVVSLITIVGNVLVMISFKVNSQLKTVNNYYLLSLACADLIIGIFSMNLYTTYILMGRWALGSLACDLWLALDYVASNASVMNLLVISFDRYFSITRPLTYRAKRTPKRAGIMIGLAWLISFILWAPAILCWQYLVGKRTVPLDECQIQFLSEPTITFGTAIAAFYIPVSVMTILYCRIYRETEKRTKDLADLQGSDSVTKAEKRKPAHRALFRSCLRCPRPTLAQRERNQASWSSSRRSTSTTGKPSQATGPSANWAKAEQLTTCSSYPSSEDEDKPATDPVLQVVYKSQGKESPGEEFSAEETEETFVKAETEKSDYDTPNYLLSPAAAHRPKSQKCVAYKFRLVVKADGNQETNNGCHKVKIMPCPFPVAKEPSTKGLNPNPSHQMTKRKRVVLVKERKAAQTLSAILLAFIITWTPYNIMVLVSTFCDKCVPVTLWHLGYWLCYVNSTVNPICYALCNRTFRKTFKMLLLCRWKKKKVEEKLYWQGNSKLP
# Excerpt: as §1
# [5] = target: D(2) dopamine receptor (Homo sapiens, UniProt P14416)
# Excerpt: as §1
# [6] = target: Mu-type opioid receptor (Homo sapiens, UniProt P35372)
# Excerpt: as §1
# [7] = target: Beta-1 adrenergic receptor (Homo sapiens, UniProt P08588)
# Excerpt: as §1
# [8] = target: T3, Muscarinic acetylcholine receptor M2 (Homo sapiens, UniProt P08172)
# T3 sequence (P08172 whole entry): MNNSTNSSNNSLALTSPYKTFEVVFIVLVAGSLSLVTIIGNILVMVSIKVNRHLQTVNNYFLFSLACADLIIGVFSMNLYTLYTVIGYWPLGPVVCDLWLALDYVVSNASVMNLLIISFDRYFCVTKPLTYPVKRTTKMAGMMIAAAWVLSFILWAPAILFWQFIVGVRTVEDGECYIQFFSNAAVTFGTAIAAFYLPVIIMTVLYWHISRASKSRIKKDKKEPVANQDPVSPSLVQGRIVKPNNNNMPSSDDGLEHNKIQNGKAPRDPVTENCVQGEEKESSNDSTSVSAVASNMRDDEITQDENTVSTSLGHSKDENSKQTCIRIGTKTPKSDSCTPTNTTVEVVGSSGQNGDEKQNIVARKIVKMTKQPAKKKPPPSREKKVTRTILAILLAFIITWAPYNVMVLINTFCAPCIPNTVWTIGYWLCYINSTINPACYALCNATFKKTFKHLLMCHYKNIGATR
# Excerpt: as §1
# [9] = target: 5-hydroxytryptamine receptor 2A (Homo sapiens, UniProt P28223)
# Excerpt: as §1
# [10] = target: T4, Muscarinic acetylcholine receptor M1 (Homo sapiens, UniProt P11229)
# T4 sequence (P11229 whole entry): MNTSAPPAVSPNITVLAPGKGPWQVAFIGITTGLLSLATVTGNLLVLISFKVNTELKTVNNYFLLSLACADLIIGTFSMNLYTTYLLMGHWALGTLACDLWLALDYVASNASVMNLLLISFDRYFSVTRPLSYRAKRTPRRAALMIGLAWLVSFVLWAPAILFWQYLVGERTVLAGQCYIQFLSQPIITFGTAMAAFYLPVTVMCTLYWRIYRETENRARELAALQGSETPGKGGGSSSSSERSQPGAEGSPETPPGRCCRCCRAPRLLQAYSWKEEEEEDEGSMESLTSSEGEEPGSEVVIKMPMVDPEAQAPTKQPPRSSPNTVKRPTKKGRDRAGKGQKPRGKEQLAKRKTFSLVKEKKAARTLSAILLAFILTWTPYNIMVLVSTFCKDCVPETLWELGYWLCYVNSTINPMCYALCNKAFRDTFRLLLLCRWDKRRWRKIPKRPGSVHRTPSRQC
# Excerpt: as §1
# [11] = target: 5-hydroxytryptamine receptor 2B (Homo sapiens, UniProt P41595)
# Excerpt: as §1
# [12] = target: D(1A) dopamine receptor (Homo sapiens, UniProt P21728)
# Excerpt: as §1
# [13] = target: T5, Alpha-1B adrenergic receptor (Homo sapiens, UniProt P35368)
# T5 sequence (P35368 whole entry): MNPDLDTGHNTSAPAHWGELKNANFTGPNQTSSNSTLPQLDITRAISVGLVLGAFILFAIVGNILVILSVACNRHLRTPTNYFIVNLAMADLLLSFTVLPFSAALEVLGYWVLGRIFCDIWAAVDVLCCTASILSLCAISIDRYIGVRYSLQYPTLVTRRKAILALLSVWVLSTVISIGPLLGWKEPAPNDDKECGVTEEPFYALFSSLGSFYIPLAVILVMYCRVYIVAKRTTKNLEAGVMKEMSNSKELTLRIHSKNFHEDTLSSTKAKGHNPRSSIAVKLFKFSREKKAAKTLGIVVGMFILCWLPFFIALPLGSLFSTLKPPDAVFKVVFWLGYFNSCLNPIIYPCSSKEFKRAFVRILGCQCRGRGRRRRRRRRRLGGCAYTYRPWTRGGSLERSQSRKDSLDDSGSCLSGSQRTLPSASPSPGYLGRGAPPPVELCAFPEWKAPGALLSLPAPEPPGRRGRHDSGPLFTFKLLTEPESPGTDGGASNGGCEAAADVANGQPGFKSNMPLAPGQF
# Excerpt: as §1
# Beta-1 adrenergic receptor, sequence (P08588 whole entry): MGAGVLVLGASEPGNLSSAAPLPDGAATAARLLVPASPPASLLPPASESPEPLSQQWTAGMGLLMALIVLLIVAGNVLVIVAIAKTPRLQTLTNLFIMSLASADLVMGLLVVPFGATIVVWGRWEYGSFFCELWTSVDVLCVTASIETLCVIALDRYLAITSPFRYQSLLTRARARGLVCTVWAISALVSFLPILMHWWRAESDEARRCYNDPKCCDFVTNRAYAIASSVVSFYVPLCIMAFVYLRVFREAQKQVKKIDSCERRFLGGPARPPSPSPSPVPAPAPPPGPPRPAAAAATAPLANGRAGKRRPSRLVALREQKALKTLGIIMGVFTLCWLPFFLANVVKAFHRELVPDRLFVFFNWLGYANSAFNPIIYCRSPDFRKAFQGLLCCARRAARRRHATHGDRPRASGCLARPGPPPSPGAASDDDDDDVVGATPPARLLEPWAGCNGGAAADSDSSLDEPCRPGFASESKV
# D(2) dopamine receptor, sequence (P14416 whole entry): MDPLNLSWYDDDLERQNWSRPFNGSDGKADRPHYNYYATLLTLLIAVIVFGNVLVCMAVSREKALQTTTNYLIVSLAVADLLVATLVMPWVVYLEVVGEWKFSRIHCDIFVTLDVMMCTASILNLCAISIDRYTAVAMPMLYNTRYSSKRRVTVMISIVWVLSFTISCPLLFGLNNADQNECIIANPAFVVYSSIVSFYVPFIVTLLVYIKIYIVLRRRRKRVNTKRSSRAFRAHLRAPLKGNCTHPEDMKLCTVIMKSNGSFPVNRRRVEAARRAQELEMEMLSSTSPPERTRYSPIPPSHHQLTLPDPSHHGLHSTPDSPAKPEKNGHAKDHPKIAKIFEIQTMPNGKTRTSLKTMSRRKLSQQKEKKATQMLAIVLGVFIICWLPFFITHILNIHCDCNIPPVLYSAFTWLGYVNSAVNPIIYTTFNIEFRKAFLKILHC
# Sodium-dependent dopamine transporter, sequence (Q01959 whole entry): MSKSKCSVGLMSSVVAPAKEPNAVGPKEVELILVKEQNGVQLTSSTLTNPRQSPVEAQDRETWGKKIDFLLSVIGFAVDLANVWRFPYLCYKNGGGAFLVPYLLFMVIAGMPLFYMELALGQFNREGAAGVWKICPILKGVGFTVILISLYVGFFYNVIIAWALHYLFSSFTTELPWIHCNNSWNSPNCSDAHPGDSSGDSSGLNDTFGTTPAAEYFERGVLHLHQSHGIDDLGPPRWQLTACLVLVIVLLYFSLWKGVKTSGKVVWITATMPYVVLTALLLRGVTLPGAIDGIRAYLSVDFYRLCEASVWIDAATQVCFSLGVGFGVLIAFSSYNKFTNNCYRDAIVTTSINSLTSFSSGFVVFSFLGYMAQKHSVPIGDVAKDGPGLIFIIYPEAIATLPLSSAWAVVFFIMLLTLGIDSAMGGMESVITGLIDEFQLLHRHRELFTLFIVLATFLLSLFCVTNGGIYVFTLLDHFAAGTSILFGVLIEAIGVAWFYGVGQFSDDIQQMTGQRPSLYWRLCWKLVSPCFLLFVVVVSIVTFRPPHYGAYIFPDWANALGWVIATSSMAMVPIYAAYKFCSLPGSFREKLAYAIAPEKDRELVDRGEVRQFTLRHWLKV
# D(1A) dopamine receptor, sequence (P21728 whole entry): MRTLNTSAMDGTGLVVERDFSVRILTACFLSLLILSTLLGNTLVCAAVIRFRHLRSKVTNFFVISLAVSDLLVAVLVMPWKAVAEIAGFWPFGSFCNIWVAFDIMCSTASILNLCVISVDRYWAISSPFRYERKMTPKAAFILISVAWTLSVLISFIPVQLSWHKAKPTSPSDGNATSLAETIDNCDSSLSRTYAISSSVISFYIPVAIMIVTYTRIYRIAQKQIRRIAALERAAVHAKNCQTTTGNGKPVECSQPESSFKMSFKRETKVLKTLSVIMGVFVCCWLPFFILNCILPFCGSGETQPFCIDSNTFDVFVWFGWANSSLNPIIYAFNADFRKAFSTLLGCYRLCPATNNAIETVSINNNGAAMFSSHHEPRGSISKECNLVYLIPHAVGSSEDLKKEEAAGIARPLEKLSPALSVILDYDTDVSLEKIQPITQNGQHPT
# 5-hydroxytryptamine receptor 2B, sequence (P41595 whole entry): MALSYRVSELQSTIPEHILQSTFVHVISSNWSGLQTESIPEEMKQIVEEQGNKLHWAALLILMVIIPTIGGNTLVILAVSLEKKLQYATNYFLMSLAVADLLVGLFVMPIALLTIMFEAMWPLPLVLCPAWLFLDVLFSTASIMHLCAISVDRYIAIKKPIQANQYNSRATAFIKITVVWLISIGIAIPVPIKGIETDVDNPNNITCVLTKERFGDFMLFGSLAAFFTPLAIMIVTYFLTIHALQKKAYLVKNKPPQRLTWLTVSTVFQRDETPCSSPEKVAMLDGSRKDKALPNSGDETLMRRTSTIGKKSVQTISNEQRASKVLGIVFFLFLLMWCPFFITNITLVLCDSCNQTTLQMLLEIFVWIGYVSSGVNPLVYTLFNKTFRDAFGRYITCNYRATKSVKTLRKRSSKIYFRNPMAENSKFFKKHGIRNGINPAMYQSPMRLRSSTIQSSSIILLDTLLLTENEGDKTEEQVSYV
# 5-hydroxytryptamine receptor 2A, sequence (P28223 whole entry): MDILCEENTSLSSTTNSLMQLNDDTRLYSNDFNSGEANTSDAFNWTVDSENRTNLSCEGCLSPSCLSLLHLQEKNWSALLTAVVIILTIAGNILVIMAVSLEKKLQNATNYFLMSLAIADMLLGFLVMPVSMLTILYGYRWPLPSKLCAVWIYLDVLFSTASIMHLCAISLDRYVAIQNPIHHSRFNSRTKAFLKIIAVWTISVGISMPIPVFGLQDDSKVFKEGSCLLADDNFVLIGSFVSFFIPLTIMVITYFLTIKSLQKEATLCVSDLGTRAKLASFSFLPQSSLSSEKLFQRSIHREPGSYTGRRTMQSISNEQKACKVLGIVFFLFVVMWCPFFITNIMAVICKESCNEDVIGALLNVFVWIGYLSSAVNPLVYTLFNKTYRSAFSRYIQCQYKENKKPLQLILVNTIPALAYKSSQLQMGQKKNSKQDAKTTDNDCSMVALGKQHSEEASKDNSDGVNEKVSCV
# Mu-type opioid receptor, sequence (P35372 whole entry): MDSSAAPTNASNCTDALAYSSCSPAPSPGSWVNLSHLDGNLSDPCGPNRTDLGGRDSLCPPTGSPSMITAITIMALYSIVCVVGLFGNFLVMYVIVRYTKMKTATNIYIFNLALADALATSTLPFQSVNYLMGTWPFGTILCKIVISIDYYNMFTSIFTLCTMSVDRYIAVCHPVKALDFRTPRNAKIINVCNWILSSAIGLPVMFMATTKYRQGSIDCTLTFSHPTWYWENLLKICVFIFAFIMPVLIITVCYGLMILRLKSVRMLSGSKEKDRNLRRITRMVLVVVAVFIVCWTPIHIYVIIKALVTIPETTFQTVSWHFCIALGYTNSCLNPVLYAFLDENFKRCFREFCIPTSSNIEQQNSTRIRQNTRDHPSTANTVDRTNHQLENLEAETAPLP
# Histamine H1 receptor, sequence (P35367 whole entry): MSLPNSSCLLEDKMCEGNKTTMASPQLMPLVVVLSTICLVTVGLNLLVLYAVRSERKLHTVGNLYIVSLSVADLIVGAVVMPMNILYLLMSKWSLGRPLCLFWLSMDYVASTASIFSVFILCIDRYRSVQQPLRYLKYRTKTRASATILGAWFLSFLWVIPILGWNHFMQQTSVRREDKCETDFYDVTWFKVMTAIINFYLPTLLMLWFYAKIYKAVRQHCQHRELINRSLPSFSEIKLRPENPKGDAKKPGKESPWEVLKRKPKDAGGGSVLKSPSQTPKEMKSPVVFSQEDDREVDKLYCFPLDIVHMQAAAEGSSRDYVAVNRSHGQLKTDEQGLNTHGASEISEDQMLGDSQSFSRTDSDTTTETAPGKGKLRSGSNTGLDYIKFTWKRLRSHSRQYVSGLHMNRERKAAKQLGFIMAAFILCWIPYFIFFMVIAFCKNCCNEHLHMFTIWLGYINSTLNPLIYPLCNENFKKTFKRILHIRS
SMILES,Ki [1] [µM],Ki [2] [µM],Ki [3] [µM],Ki [4] [µM],Ki [5] [µM],Ki [6] [µM],Ki [7] [µM],Ki [8] [µM],Ki [9] [µM],Ki [10] [µM],Ki [11] [µM],Ki [12] [µM],Ki [13] [µM]
CCSc1cc(OC)c(CCN)cc1OC [2C-T-2],0.381,> 10,> 10,1.5,2.79,> 10,9.2,> 10,0.0399,> 10,0.006,> 10,> 10
CNC(C)Cc1ccc2c(c1)OCO2 (stereo not given) [mdma],> 10,> 10,> 10,6.33,> 10,> 10,> 10,> 10,> 10,> 10,0.5,> 10,> 10
CCCN(CCC)CCc1c[nH]c2ccccc12 [dpt],0.0318,0.125,1.5,> 10,9.25,> 10,> 10,> 10,2.58,> 10,0.042,> 10,0.443
CC(C)N(CCc1c[nH]c2ccccc12)C(C)C [dipt],0.12,3.58,> 10,> 10,> 10,> 10,> 10,> 10,> 10,> 10,0.398,> 10,> 10
"CCSc1cc(OC)c(CC(C)N)cc1OC (stereo not given) [2-(4-Ethylsulfanyl-2,5-dimethoxy-phenyl)-1-methyl-ethylamine]",1.67,> 10,> 10,8.02,> 10,> 10,6.79,> 10,0.0604,> 10,0.0016,> 10,> 10
"CCSc1cc(OC)c(CC(N)CC)cc1OC (stereo not given) [1-(4-Ethylsulfanyl-2,5-dimethoxy-benzyl)-propylamine]",5.34,> 10,> 10,> 10,> 10,> 10,> 10,> 10,0.274,> 10,0.0581,> 10,> 10
"COc1cc(CC(C)N)c(OC)cc1Br (stereo not drawn) [2-(4-Bromo-2,5-dimethoxy-phenyl)-1-methyl-ethylamine((-)-DOB)]",2.55,9.12,> 10,> 10,> 10,> 10,2.42,> 10,–,> 10,0.0039,> 10,> 10
